Assay results: ChEMBL document CHEMBL4371096, “Polyoxygenated Cyclohexenes and Their Chlorinated Derivatives from the Leaves of Uvaria cherrevensis” (J Nat Prod, 2019)

What was measured:
Plasmodium falciparum [1] = assay: Antimalarial activity against drug-sensitive Plasmodium falciparum TM4/8.2 after 48 hrs by SYBR Green1 dye based fluorescence assay; format: functional, organism-based; details: TM4/8.2, 48 h
KB = assay: Cytotoxicity against human KB cells; format: functional, cell-based
Plasmodium falciparum [2] = assay: Antimalarial activity against drug-resistant Plasmodium falciparum K1CB1 after 48 hrs by SYBR Green1 dye based fluorescence assay; format: functional, organism-based; details: K1CB1, 48 h
Vero = assay: Cytotoxicity against African green monkey Vero cells; format: cell-based; details: Chlorocebus sabaeus

Measured: IC50

CC1(C)O[C@H]2C=C[C@@H](OC(=O)c3ccccc3)[C@H](O)[C@@]2(COC(=O)c2ccccc2)O1
> 50 µM: all assays above

CC(=O)O[C@H]1C=CC=C[C@@]1(O)COC(=O)c1ccccc1
> 50 µM: all assays above

O=C(OC[C@]1(O)[C@H](Cl)C=C[C@H](O)[C@H]1O)c1ccccc1
> 50 µM: all assays above

COc1ccc2c(c1)C[C@H]1[C@@H](OC(=O)c3ccccc3)[C@H](O)C(COC(=O)c3ccccc3)=C[C@H]1O2
> 50 µM: all assays above

O=C(OCC1=C[C@H]2Oc3ccccc3C[C@H]2[C@@H](OC(=O)c2ccccc2)[C@@H]1O)c1ccccc1
> 50 µM: all assays above

O=C(OC[C@]1(O)[C@@H](O)C=C[C@@H](O)[C@@H]1O)c1ccccc1
> 50 µM: all assays above

O=C(OC/C=C/C=C/[C@H](O)COC(=O)c1ccccc1)c1ccccc1
> 50 µM: all assays above

O=C(OC[C@]1(O)[C@H](OC(=O)c2ccccc2)C=C[C@@H](OC(=O)c2ccccc2)[C@@H]1O)c1ccccc1
> 50 µM: all assays above

O=C(OC[C@]12O[C@H]1C=C[C@@H](OC(=O)c1ccccc1)[C@H]2O)c1ccccc1
> 50 µM: all assays above

CC(=O)O[C@H]1C=C[C@@H](Cl)[C@@](O)(COC(=O)c2ccccc2)[C@@H]1O
> 50 µM: all assays above

CC(=O)O[C@@H]1C=C[C@@H](OC(=O)c2ccccc2)[C@H](O)[C@]1(O)COC(=O)c1ccccc1
> 50 µM: all assays above

O=C(OC[C@]1(O)[C@H](Cl)C=C[C@@H](OC(=O)c2ccccc2)[C@@H]1O)c1ccccc1
> 50 µM: all assays above

O=C(OCC1=C[C@@H](O)[C@H](O)[C@H](OC(=O)c2ccccc2)[C@H]1O)c1ccccc1
> 50 µM: all assays above

CC(=O)O[C@H]1C=C[C@@H](O)[C@H](O)[C@@]1(O)COC(=O)c1ccccc1
> 50 µM: all assays above

CC(=O)O[C@H]1C=CC=C(COC(=O)c2ccccc2)[C@@H]1O
> 50 µM: all assays above
